Tests used:
[1] = system: human breast cancer-derived MCF-7 cells; experiment: E-SCREEN assay, proliferation of cultured cells, MTT method (Example 8); assay type: cell-based
Procedure: A test for proliferation of cultured cells was carried out according to a method called the E-SCREEN assay as described in Ana M. Soto et al. (Environ. Health Perspect. 103:113-122(1995)). Briefly, 4.0 x 10^3 of human breast cancer-derived MCF-7 cells in a volume of 100 µL were seeded into each well of a 96-well plate. The plate was incubated overnight. BisA or a combination of BisA and n-octyl gallate was then added thereto. A well without the addition was used as a control. The cells were further cultured for 4 days in a medium, Dulbecco's modified Eagle medium without Phenol Red supplemented with 5% FCS treated with activated carbon-dextran. The MTT method was used to measured the cell numbers.

female SD rat [2] = experiment: Anti-estrogenic activity of n-octyl gallate or n-cetyl gallate against subcutaneously administered BisA, rat uterine weight (Example 11); assay type: in vivo; conditions: for Uterine weight: 3 days; for Ratio: vs control (100%)
Procedure: A 17-days old female SD rat (Japan SLC) was purchased together with its mother, weaned at 20 days of age, and subjected to experiments from the next day. n-Octyl gallate or n-cetyl gallate (both from Tokyo Kasei Kogyo) was dissolved in a small volume of ethanol. Peanut oil was added thereto to result in a final ethanol concentration of 5%. The resulting mixture was orally administered to the 21-days old female SD rat for three successive days. The uterine removed on the day after the last administration day was weighed. Peanut oil containing 5% ethanol was used for a vehicle administration group. BisA was dissolved in a small volume of ethanol. Peanut oil was added thereto to result in a final ethanol concentration of 5%. The mixture was subcutaneously administered.

[3] = molecular target: T1, ER(α) (estrogen receptor α) (Homo sapiens, UniProt P03372); experiment: Binding to estrogen receptor, fluorescence polarization competition (FP Screen-for-Competitors kit, ER-α) (Example 7); conditions: concentration inhibiting 50% of the binding of the ES1-ER(α) complex by competing with ES1; 1 hour at room temperature
T1 construct: purchased PanVera V2577
T1 sequence (P03372 1-595): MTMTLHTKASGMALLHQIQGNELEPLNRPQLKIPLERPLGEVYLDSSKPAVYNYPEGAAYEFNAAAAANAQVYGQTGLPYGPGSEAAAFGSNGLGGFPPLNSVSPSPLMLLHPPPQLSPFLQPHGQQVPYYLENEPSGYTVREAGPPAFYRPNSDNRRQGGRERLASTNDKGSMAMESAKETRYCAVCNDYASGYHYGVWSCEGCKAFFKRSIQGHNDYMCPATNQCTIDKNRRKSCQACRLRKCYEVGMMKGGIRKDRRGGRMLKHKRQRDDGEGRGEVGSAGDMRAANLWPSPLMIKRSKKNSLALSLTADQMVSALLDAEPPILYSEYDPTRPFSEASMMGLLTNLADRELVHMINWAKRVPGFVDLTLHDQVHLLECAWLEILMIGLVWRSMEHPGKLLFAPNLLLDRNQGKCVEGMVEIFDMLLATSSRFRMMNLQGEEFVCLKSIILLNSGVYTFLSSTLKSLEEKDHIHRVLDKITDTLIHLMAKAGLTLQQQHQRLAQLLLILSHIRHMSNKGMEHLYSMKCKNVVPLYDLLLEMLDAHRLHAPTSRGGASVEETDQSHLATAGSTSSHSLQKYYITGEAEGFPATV
Procedure: Bindings of various gallic acid derivatives to estrogen receptor were tested using FP Screen-for-Competitors kit, ER-α, high sensitivity kit (V2577: PanVera). The tests were carried out basically according to the procedure as described in the manual attached to the kit. One of various gallic acid derivatives (n-octyl gallate (gallic acid n-octyl ester), n-dodecyl gallate (gallic acid n-dodecyl ester) and n-cetyl gallate (gallic acid n-hexadecyl ester)) was dissolved in DMSO and serially diluted to prepare diluted samples (0.5 M - 0.0000000005 M). 49 µL of Screening buffer attached to the kit was added to 1 µL of one of the diluted samples and stirred thoroughly. 50 µL of 10 nM-15 nM:ES1-ER(α) complex (a complex of ES1 (a fluorescent ligand that binds to ER) and ER(α) (estrogen receptor α)) attached to the kit was added thereto, resulting in the total volume of 100 µL. After allowing to stand for 1 hour at room temperature, fluorescence polarization was measured at an excitation wavelength of 360 nm and an emission wavelength of 535 nm using Full-Range BEACON 2000 (PanVera).

female SD rat [4] = experiment: Anti-estrogenic activity of n-octyl gallate against NP, rat uterine weight (Example 10); assay type: in vivo; conditions: for Uterine weight: 1.5 hours before NP, 3 days; for Ratio: vs control (100%)
Procedure: (§1) A 16-days old female SD rat (Japan SLC) was purchased together with its mother, weaned at 19 days of age, and subjected to experiments from the next day. n-Octyl gallate (Tokyo Kasei Kogyo) was dissolved in a small volume of ethanol. Peanut oil was added thereto to result in a final ethanol concentration of 5%. The resulting mixture was orally administered to the 20-days old female SD rat for three successive days. The uterine removed on the day after the last administration day was weighed. Peanut oil containing 5% ethanol was used for a vehicle administration group. NP weighed such that it would be administered at 50 mg/kg was diluted by adding peanut oil. It was orally administered 1.5 hours after the administration of n-octyl gallate.

female SD rat [5] = experiment: Anti-estrogenic activity of n-octyl gallate against BisA, rat uterine weight (Example 9); assay type: in vivo; conditions: for Uterine weight: 1.5 hours before BisA, 3 days; for Ratio: vs control (100%)
Procedure: as §1, with “BisA” for “NP weighed such that it would be administered at 50 mg/kg”, “dissolved in a small volume of ethanol. Peanut oil was added thereto to result in a final ethanol concentration of 5%.” for “diluted by adding peanut oil.”

[6] = BisA 40 mg/kg subcutaneous + n-octyl gallate 5 mg/kg oral
[7] = BisA 40 mg/kg subcutaneous + n-octyl gallate 25 mg/kg oral
[8] = NP 50 mg/kg oral + n-octyl gallate 25 mg/kg oral
[9] = NP 50 mg/kg oral + n-octyl gallate 126 mg/kg oral
[10] = BisA 40 mg/kg oral + n-octyl gallate 25 mg/kg oral
[11] = BisA 40 mg/kg oral + n-octyl gallate 126 mg/kg oral

With `CCCCCCCCOC(=O)c1cc(O)c(O)c(O)c1` [n-octyl gallate, gallic acid n-octyl ester] the “Relative rate of increase in cell number” value ([1]; BisA + n-octyl gallate, MCF-7, 4 days culture, control = 100) was 91%, the “suppression of the proliferation of the cells (in words)” value ([1]; BisA and n-octyl gallate added, MCF-7) was “suppressed to a degree almost the same as that of the control” and the Uterine weight (female SD rat [2]; [6]) was 48.3 ± 1.5 mg. It also gave a Uterine weight (female SD rat [2]; [7]) of 42.1 ± 1.9 mg, a Ratio (female SD rat [2]; [6]) of 117% and a Ratio (female SD rat [2]; [7]) of 102%. The IC50 [3] was 3.38 µM, the Uterine weight (female SD rat [4]; [8]) was 40.4 ± 3.6 mg and the Uterine weight (female SD rat [4]; [9]) was 38.6 ± 2.4 mg. It also gave a Ratio (female SD rat [4]; [8]) of 122%, a Ratio (female SD rat [4]; [9]) of 117% and a Uterine weight (female SD rat [5]; [10]) of 32.7 ± 3.5 mg. For the same compound, the Uterine weight (female SD rat [5]; [11]) was 32.9 ± 3.6 mg, the Ratio (female SD rat [5]; [10]) was 108% and the Ratio (female SD rat [5]; [11]) was 108%.

Source: patent EP1232756A1, “DRUGS, DRINKS OR FOODS” (Takara Shuzo Co, Ltd., priority 1999, dated 2001)
